The values that follow come from ChEMBL document CHEMBL1201862, “PubChem BioAssay data set” (2004).

Active and inactive are the calls of the source.

One test addresses T1, Leucine aminopeptidase (Plasmodium falciparum 3D7, UniProt Q8IL11).
T1 sequence (Q8IL11 whole entry): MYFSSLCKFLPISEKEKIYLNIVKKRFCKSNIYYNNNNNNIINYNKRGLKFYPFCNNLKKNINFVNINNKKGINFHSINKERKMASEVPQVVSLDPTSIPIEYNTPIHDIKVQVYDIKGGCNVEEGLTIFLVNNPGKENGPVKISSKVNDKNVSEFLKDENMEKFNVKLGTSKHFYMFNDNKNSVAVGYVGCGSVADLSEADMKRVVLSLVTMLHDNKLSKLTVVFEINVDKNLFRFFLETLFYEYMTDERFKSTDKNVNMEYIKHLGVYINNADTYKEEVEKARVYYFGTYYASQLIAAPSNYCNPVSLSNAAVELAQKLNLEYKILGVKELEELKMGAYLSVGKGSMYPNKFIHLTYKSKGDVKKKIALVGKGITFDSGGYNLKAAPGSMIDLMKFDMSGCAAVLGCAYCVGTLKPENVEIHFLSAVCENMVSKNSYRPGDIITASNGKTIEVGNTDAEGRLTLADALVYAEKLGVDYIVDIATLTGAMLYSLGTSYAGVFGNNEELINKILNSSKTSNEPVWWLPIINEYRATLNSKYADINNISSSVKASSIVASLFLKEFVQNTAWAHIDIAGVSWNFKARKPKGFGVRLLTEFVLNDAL
The test can be described thus: P. falciparum M17LAP inhibitors, primary screen, biochemical, fluorogenic H-Leu-NHMec substrate, 1536-well (AID 1619). It is filed as functional.

A short description of test [1]: viability loss in CEM21 cells – cell-based, CellTiter-Glo luminescence, cherry-picked, cytotoxicity control for viral fusion inhibitor project, dose response (AID 652042).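 Also: potency for signal decrease meaning cytotoxicity.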 The test is classed as functional. (In general: ATP-based viability assays read luminescence as a measure of living cells.)
Test [2] is described as follows: blockers of HIV-1 ZM109 envelope-driven cell-cell fusion – HeLa effector, CEM target cells, luciferase, cherry-pick, dose response (AID 652058).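 Also: luciferase signal from HIV-1 Env mediated cell-cell fusion of effector and target cells.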 The test is classed as functional, cell-based.
Test [3] can be described thus: HIV-1 AD8 envelope cell-cell fusion blockers – cherry-pick, dose response (AID 652062).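 Also: luciferase signal from cell-cell fusion driven by HIV-1 clade B AD8 Env; potency is for inhibitors of fusion seen as a drop in luminescence.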 The test is classed as functional, cell-based.
A short description of test [4]: off-target signal loss in HeLa-CEM21 co-culture – HeLa F-luc CTL cells, cherry-picked, counter-screen for HIV-1 Env fusion inhibitor project, dose response (AID 652040).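 Also: potency for signal decrease marking cytotoxic or nonspecific inhibition.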 The test is classed as functional, cell-based. In general terms: A counterscreen serves to expose hits that act by an unwanted route or on another target.
Test [5] in a line: blockers of HIV-1 envelope-mediated cell-cell fusion – cherry-pick, dose response (AID 652057). The test is classed as functional, cell-based.
Test [6] has as its target T2, Short transient receptor potential channel 4 (Mus musculus, UniProt Q9QUQ5).
T2 sequence (Q9QUQ5 whole entry): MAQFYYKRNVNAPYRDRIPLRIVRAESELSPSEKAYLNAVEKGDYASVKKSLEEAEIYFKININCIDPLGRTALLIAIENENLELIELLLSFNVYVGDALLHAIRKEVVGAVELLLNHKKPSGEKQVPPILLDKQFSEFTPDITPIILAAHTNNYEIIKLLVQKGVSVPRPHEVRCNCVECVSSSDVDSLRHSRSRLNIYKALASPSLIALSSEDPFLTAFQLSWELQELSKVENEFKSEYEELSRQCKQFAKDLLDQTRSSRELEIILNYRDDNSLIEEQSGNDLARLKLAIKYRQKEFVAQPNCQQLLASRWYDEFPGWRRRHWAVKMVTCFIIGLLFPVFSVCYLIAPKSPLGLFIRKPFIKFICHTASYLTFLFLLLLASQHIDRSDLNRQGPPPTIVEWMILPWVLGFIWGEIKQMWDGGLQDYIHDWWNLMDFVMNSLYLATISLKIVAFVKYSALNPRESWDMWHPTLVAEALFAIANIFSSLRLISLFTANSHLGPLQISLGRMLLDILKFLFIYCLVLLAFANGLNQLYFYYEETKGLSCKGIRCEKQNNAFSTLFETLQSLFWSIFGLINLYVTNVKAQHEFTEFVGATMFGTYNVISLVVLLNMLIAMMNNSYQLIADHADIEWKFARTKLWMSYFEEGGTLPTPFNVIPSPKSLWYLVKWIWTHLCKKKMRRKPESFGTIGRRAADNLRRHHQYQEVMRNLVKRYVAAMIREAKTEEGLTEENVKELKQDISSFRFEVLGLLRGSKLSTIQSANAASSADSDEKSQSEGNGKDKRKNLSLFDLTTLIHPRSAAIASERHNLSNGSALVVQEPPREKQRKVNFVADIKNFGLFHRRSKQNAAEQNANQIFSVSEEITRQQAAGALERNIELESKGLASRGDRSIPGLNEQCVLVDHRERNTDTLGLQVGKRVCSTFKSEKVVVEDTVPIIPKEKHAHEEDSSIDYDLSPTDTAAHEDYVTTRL
The test is described as follows: calcium entry via TRPC4 opening agents – cell-based, HEK293 TRPC4/mu-opioid, Fluo-4 calcium, dose response (AID 434937). The test is classed as functional.

The nature of test [7]: viability loss in HEK293 cells – cell-based, plate reader, cherry-picked samples, cytotoxicity control, dose response (AID 743446). It is filed as functional.
Test [8] is described as follows: Luminescence Cell-Based Dose Retest to Confirm Inhibitors of Cancer Stem Cells. [Related pubchem assays (depositor defined):AID2717, AID2721]. It is filed as functional. Particulars: Homo sapiens.
Test [9] can be described thus: toxicity toward HepG2 liver cells – cell-based, plate reader, cherry-pick, antagonist series, cytotoxicity control, dose response (AID 743416). It is filed as functional.
A short description of test [10]: blockers of bursicon-stimulated LGR2 cAMP reporter – cell-based, HEK293, CRE-luciferase reporter, cherry pick, set 2, dose response (AID 743343).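 Also: transfected cells were stimulated with diluted bursicon conditioned medium after compound addition.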 It is filed as functional.
Test [11] is described as follows: blockade of melanocortin 4 receptor signaling – cell-based, plate reader, cherry pick, counter-screen for LGR2 antagonist project, dose response (AID 743444).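 Also: transfected HEK 293 cells stimulated with alpha-MSH peptide; potency of inhibitors of the alpha-MSH evoked signal.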 It is filed as functional.
A further test deals with HEK293. The test is described as follows: EBV LMP1 TES2 canonical NF-kB signalling blockers – cell-based, HEK293, luciferase, cherry-pick, dose response (AID 588343). It is filed as functional. As to conditions: Homo sapiens.
Test [12] is described as follows: A549 cell cytotoxicity, dose response, cytotoxicity control, plate reader, cherry-pick, antagonist series (AID 743412). It is filed as functional, cell-based.
The nature of test [13]: viability loss in THP-1 monocytes – THP-1 cells, cytotoxicity control for Vif-APOBEC3G degradation inhibitor project, dose response (AID 1117359). It is filed as functional. Particulars: THP-1.
Test [14] can be described thus: Luminescence Cell-Based Dose Confirmation HTS to Identify Inhibitors of Platelet Dense Granule Release. [Related pubchem assays: 1663 (Primary HTS), 1678 (Summary of Project)]. It is filed as functional.
Test [15] is described as follows: luciferase reporter signal suppression in cells – H4 neuroglioma cells, luminescence, dose response (AID 1990). The test is classed as functional, cell-based.
Test [16] can be described thus: Luminescence Cell-Based Dose Response HTS to Identify Inhibitors of 5'UTR Stem-Loop Driven Prion Protein mRNA Translation in H4 Neuroglioblastoma Cells. [Related pubchem assays: 1827 (Project Summary), 1813 (Primary HTS)]. It is filed as functional.
The target in test [17] is T3, RNA-binding protein pos-1 (Caenorhabditis elegans, UniProt G5EF15).
T3 sequence (G5EF15 whole entry): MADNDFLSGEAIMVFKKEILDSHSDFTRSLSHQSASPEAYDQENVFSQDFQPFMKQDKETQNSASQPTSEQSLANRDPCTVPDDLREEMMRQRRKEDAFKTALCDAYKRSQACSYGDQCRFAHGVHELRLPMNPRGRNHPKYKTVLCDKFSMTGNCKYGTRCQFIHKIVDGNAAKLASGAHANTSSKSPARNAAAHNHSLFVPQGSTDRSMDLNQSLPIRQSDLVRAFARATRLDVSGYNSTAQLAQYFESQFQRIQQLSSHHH
The test can be described thus: disruptors of C. elegans POS-1 RNA interaction – biochemical, fluorescence polarization, dose response (AID 1964).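 Also: purified POS-1 fused to maltose binding protein made in E. coli; potency of compounds blocking POS-1 binding to fluorescent RNA.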 Background: In fluorescence polarisation assays a small probe gives low polarisation when free and higher when bound to something large.

Test [18] concerns the target T4, Zinc finger protein mex-5 (Caenorhabditis elegans, UniProt Q9XUB2).
T4 sequence (Q9XUB2 whole entry): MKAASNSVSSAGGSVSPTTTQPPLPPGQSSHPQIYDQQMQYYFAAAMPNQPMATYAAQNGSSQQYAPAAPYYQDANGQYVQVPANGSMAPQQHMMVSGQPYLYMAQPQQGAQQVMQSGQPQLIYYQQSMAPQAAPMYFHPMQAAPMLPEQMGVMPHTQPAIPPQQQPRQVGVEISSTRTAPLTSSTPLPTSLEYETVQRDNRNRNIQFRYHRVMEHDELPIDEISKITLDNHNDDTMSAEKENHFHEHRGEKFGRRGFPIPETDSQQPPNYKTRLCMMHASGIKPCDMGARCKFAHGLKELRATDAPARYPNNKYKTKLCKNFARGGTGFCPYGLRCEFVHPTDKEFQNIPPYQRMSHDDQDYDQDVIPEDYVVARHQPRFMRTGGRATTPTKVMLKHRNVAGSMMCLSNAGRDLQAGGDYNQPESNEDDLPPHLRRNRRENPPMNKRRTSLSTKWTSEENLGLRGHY
The test can be described thus: potency of MEX-5 RNA-binding blockers – biochemical, C. elegans, fluorescence polarization, dose response (AID 1960).

For test [19], the target named is T5, Nuclear receptor subfamily 0 group B member 1 (Homo sapiens, UniProt P51843).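 Also: HEK293T cells transfected with SF-1 and DAX-1 plus StAR promoter luciferase reporter.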
T5 sequence (P51843 whole entry): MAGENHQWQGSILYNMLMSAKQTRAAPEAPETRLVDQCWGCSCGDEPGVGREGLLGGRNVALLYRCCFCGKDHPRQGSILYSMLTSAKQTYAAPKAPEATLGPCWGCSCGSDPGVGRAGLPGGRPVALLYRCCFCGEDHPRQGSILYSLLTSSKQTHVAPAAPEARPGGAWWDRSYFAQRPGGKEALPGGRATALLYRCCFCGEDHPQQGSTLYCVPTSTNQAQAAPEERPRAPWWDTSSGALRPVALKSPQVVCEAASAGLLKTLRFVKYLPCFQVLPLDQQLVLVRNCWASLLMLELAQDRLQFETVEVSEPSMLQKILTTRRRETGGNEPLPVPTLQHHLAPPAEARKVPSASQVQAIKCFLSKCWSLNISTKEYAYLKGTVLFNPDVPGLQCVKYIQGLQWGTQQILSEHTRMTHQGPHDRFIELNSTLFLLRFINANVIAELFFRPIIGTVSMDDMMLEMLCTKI
It is filed as functional, cell-based.

The target of test [20] is Luciferin 4-monooxygenase (Photinus pyralis, UniProt P08659). The test can be described thus: inhibition of purified Photinus pyralis luciferase – biochemical, luminescence, dose response (AID 1891).
Sequence of Luciferin 4-monooxygenase (P08659 whole entry): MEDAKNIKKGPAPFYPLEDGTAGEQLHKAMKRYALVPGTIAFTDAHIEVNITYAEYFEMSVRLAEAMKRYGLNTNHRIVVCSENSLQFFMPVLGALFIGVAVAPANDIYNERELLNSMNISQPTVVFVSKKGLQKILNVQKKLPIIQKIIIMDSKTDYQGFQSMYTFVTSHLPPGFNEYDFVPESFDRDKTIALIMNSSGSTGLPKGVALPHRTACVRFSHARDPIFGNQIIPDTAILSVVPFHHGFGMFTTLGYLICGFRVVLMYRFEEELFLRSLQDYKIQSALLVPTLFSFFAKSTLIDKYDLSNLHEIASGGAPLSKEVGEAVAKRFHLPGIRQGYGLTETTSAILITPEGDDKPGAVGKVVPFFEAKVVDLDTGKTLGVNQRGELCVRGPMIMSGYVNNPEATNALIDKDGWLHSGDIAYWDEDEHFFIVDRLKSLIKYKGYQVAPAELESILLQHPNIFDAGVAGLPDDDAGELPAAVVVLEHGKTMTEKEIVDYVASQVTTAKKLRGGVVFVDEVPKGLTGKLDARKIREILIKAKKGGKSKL
The next test is described as follows: cells. The test is classed as functional, cell-based.
The nature of test [21]: alpha-synuclein stem-loop luciferase translation blockers – H4 neuroglioma cells, luminescence, confirmation (AID 1988). The test is classed as functional, cell-based.

Take `Cc1ccc(NC(=O)CSc2ncc(S(=O)(=O)c3ccccc3)c(O)n2)cc1C`: at Leucine aminopeptidase, the IC50 is 4.56 µM (active).
Consider `COc1ccc(C(CCNCc2ccc(N(C)C)cc2)c2ccccc2)cc1` (centres undefined), for which the AC50 in [1] is 18.2 µM (active); in test [2], 14.4 µM (active); in test [3], 26.1 µM (active); in [4] it was 17.5 µM (active); in test [5], 4.13 µM (active). Moreover, the concentration giving a half-maximal response (EC50) in test [6] was 5.96 µM (active).
Take `COc1cccc(/C=C/c2ccc3ccccc3n2)c1OC(C)=O`: the AC50 was 30.1 µM (active) in test [7]; 6.67 µM (active) in test [8]; 33.3 µM (active) in test [9]; 2.77 µM (active) in [10]; 2.59 µM (active) in test [11]; 1.87 µM (active) in the test with HEK293. For the same compound, in test [12], the concentration at half-maximal activity (AC50) was 25.3 µM (active).
With `CC1CCc2[nH]c3ccc(C(=O)N(C)CC(=O)Nc4ccc(F)cc4)cc3c2C1` (centres undefined), the half-maximal cytotoxic concentration (CC50) in test [13] is > 40 µM (active).
With `O=C(CSc1[nH]cnc2nncc1-2)Nc1nc(-c2ccc(F)c(F)c2)cs1`, the figures for the AC50 in [7], in test [9] and in test [12] were > 52 µM (inactive), > 52 µM (inactive) and 46.1 µM (active), respectively.
Turning to `Cc1nc2sc(-c3ccccc3)cc2c(=O)n1N`, the EC50 in test [14] was 1.73 µM (active); in [15], 2.82 µM (active); in [16], 6.26 µM (active); in test [17], > 300 µM (not active); in test [18], > 300 µM (not active); in test [20] it was 1.01 µM (active). The EC50 in [21] was 3.44 µM (active). Also, the AC50 in [7] is 24.9 µM (active); in [9], 50 µM (active); in test [10], 2.31 µM (active); in test [11] it was 2.66 µM (active); in the test on HEK293 it was 1.04 µM (active); in test [12] it was 24.2 µM (active). In addition, the IC50 (in [19]; in “cells”) was > 67.6 µM (inactive) in each case.
Take `O=C(CSc1nnc[nH]1)Nc1ccc2c(c1)CCC2`: the concentration for half-maximal inhibition (IC50) at Leucine aminopeptidase was 22.3 µM (active).

What is called IC50 is the midpoint of a concentration-inhibition curve. One may read the AC50 as the concentration giving half of the maximal activity seen. By EC50 is commonly meant the concentration needed to bring the measured effect to its halfway point. By CC50 is commonly meant the concentration at which the toxic effect on the cells reaches its halfway point.
